Data on 93 molecules can be found in a melting point compilation (Tetko et al.; mined from patent text by program, amines drawn as free bases though some values may be those of a salt).

Some results are limits rather than exact numbers.

With `COc1cccc(Nc2nc(N)nc3[nH]c4ccccc4c23)c1`, the melting point (commonly the temperature, or range, at which the solid turns liquid) fell in the range of 225 to 226 °C.

For `CC(=O)n1nc(-c2ccc(Cl)cc2)nc1C`, the melting point is 132 to 133 °C.

Molecule `CCCCc1c(C)c2ccc(OCCCCl)cc2[nH]c1=O` displayed a melting point of 203 °C.

The molecule `COc1ccc(Cc2cnc(N)nc2N)cc1OCCNS(=O)(=O)c1ccc(N)cc1` came in with a melting point of 207 to 208 °C.

`CCc1nc2c(OCc3ccccc3)cc(C(=O)N(C)C)cc2n1C` displayed a melting point of 104 to 108 °C.

On to `CC(C)(O)CC1CN=C(c2cc3cc(Oc4ccc(S(C)(=O)=O)cn4)cc(OC4CCOCC4)c3[nH]2)S1` (stereo not drawn), for which the melting point lay within 129 to 130 °C.

In turn, `Cc1cc2c(-c3ccccc3)c(C=O)n(C)c(=O)c2cc1C` had a melting point of 178 to 179 °C.

Regarding `O=C(O)Cn1cc2c(=O)n3c(nc2n1)SCC3`, the melting point amounted to 276 °C.

In the case of `NCC(=O)NCCCCNc1cccc2c1C(=O)c1ccccc1C2=O`, the melting point was determined as 206 °C.

Consider `CCCc1ccc(-c2ccc(-c3ccc(OC)cc3)nn2)cc1`, for which the melting point was 128 to 130 °C.

As for `O=C(O)C1CSC(Cc2ccccc2)N1` (mixture of isomers), the melting point was 200 °C.

Turning to `CCOc1ccc(NC(=O)c2cnc3c(N)cccc3c2)cc1`, the melting point was in the range of 187 to 189 °C.

The molecule `CN(c1cc(OC(F)(F)F)cc2cc(C(=O)NCCSC(c3ccccc3)(c3ccccc3)c3ccccc3)[nH]c12)S(=O)(=O)c1cccs1` yielded a melting point of 222 to 223 °C.

In turn, `O=C(Nc1ccc(F)cc1F)Oc1ccccc1` showed a melting point of 82 to 84 °C.

Molecule `C=CCCCCCCCCCCCCCCCCCCCCO` yielded a melting point of 62 to 64 °C.

`O=C(O)c1cccc(Cc2cc(Cl)cc(Cc3ccccc3O)c2O)c1O` yielded a melting point of 198 to 200 °C.

As for `Cc1c(NCCCNCC(O)COc2ccccc2)n(C)c(=O)n(C)c1=O` (stereo not drawn), the melting point fell in the range of 132 to 133 °C.

`Cc1oc2c(-n3c(=O)cc(C(F)(F)F)n(C)c3=O)c(F)cc(Cl)c2c1CC(N)=O` registered a melting point of 127 to 129 °C.

In turn, `Cc1cc(C)c(C(=O)c2ccccc2C)c(O)c1` returned a melting point of 65 to 67 °C.

`CCNC(=NC(=Nc1ccccc1)N1CCOCC1)C(C)C` registered a melting point of 155 to 158 °C.

As to `CN1C(=O)C(=O)c2cc([N+](=O)[O-])cc(C(F)(F)F)c21`, the melting point is 168 to 169 °C.

For the molecule `COC(=O)/C(=C\O)c1ccccc1C`, the melting point was 48 to 49 °C.

The molecule `Cc1ccn(-c2ccc(C(=O)N3Cc4cccnc4N(C)c4ccccc43)c(C(F)(F)F)c2)n1` registered a melting point of 188 to 190 °C.

Molecule `O=C(NCc1cccc([N+](=O)[O-])c1)Nc1ccccc1` displayed a melting point of 153 to 156 °C.

Turning to `CCCn1c(C)nn(-c2ccc(N)cc2)c1=O`, the melting point is 139 °C.

In turn, `CCCCNC(=O)c1ccc(S(=O)(=O)NCCCC)o1` displayed a melting point of 69.4 °C.

Molecule `Cc1ccc(C(N)=O)cc1NC(=O)COCCO` displayed a melting point of 118 to 119 °C.

Turning to `COc1ccc(-c2cc3cc(F)c(F)cc3[nH]2)cc1NS(=O)(=O)c1cccc(N)c1`, the melting point is 235 to 238 °C.

As to `Cc1ccc(N2C(=O)CN3C(=O)CC[C@@H]32)cc1`, the melting point lay in the range of 149 to 150 °C.

For the molecule `O=C(COc1cccc(CCNS(=O)(=O)c2ccc(Cl)cc2)c1)N1CCOCC1`, the melting point was in the range of 110 to 111 °C.

For `O=C(Nc1ccc(Cl)cc1F)c1cc(-c2ccc(F)cc2F)ccc1O`, the melting point lay in the range of 245 to 246 °C.

Molecule `O=C1NC(=O)C(Cc2ccc3nc(Cc4ccc(Cl)cc4)oc3c2)S1` (stereo not drawn) had a melting point of 220 °C.

`CCCn1c(=O)c(C=O)c2n(c1=O)CCCS2`: the melting point fell in the range of 153 to 154 °C.

In turn, `CCCCN1N=C(c2ccc3c(c2)C(C)(C)CC(=O)N3C)C(C)CC1=O` (stereo not drawn) gave a melting point of 137 to 139 °C.

Regarding `COc1ccc(C(=O)NCCCCCCNC(=O)c2ccc(OC)cc2)cc1`, the melting point lay in the range of 177 to 178 °C.

Consider `COC(=O)c1ccc(OC(=O)Cl)cc1`, for which the melting point is 52 to 53 °C.

`CCOC(=O)C(Cl)=Cc1cc(-n2c(Cl)nc(C(F)(F)F)cc2=O)ccc1Cl` displayed a melting point of 114 to 115 °C.

As for `CC(C)c1ccc(-c2cn(C)cc(-c3ccccc3)c2=O)cc1`, the melting point was 159 °C.

In the case of `O=C(Nc1cccc(-n2ccnc2)c1)c1ccn(-c2ccccc2)c1`, the melting point was 100 to 103 °C.

The molecule `O=C1Cc2ccccc2SN(CCO)C1` displayed a melting point of 173 to 175 °C.

In the case of `Cc1cc(C2(C(F)(F)F)CC(n3cncn3)=NO2)ccc1NC(=O)c1cccc(I)c1C(=O)NC(C)C` (stereo not drawn), the melting point lay within 131 to 133 °C.

As to `CN(C)c1cc(Br)cc(Sc2ccc([N+](=O)[O-])cc2)c1`, the melting point lay in the range of 102 to 104 °C.

The molecule `CCOC(=O)c1nnc(-c2cc3cc(Oc4ccc(S(C)(=O)=O)cc4)cc(OCc4ccccc4)c3[nH]2)s1` had a melting point of 194 to 195 °C.

Regarding `Cc1cc(-c2ccc(O)nc2)cc(C=O)c1N`, the melting point is 231 to 234 °C.

For `C#CCNc1ccc([N+](=O)[O-])cc1C(F)(F)F`, the melting point is 71 to 72 °C.

`C(=C\c1nc(COc2ccc(CCCn3ccnc3)cc2)co1)/c1ccccc1` showed a melting point of 127 to 128 °C.

Consider `Cc1ccc(-c2ccc(C(=O)CCC(=O)O)cc2)cc1`, for which the melting point is 183 to 186 °C.

The molecule `CC(C)n1c(CO)c(-c2ccc(F)cc2)c(-c2ccccc2)c1C(N)=O` showed a melting point of 189 to 190 °C.

For the molecule `CC(C)c1ccc(S(=O)(=O)n2c(COC(C)(C)C(=O)O)cc3cc(Cl)ccc32)cc1`, the melting point was found to be 60 °C.

In the case of `OCC(Nc1ccnc2cc(Cl)ccc12)c1ccccc1` (stereo not drawn), the melting point is 220 to 221 °C.

As for `Cc1c(-c2nc(-c3c(F)cccc3Cl)nn2C)csc1Br`, the melting point lay within 133 to 134 °C.

The molecule `O=C1CC(C(=O)Nc2ccccc2O)CN1` (stereo not drawn) displayed a melting point of 133 to 135 °C.

In the case of `Cn1ccc(Nc2n[nH]c3ccc(-c4ncccc4Cl)cc23)n1`, the melting point was 190 to 191 °C.

For the molecule `CN1C2CCC1CC(O)(c1ccc(F)cc1)C2` (stereo not drawn), the melting point came to 169 °C.

With `Cc1nnc(-c2ccnc(NCc3ccccn3)c2)o1`, the melting point lay within 137 to 138 °C.

The molecule `Cc1cc(NC(=O)NC(=O)c2c(Cl)cccc2Cl)nc(C)c1-c1ccccc1` yielded a melting point of 230 to 235 °C.

`COCCn1cc2c(=O)[nH]c(=O)[nH]c2n1` gave a melting point of 295 to 302 °C.

As to `Cc1ccc(Cl)c(C2CC(=O)c3c(C)ccnc3C2)c1` (stereo not drawn), the melting point lay in the range of 123 to 124 °C.

Regarding `COc1ccc(-c2nc(C3=CCN(C)CC3)sc2-c2ccc(OC)cc2)cc1`, the melting point was 131 to 132 °C.

The molecule `CCOc1cc2c(Nc3ccc(OC)cc3)c(C#N)cnc2nc1C` yielded a melting point of 190 to 192 °C.

As for `COc1ccc2c(c1)N(CCNC(C)=O)CCO2`, the melting point fell in the range of 107 to 108 °C.

`CN1CC(O)N(c2cc(C(C)(C)C)on2)C1=O` (stereo not drawn) returned a melting point of 173 to 177 °C.

The molecule `CC1=C(C(=O)OC(C)(C)C)C(c2ccc(Br)cc2F)C(C(=O)OC(C)(C)C)=C(C)N1` displayed a melting point of 187 to 188 °C.

For `COc1ccc(-c2c[nH]c(=O)nc2C)cc1`, the melting point worked out at 210 °C.

Regarding `CC(=O)c1ccc(-n2c(-c3sc(Nc4ccccc4)nc3C)nc3ccccc3c2=O)cc1`, the melting point lay within 271 to 273 °C.

`OCC=CCOc1nc(F)c(Cl)cc1Cl` displayed a melting point of 30 °C.

Regarding `C=C1C=CC=C1Cc1ccc(O)cc1`, the melting point lay in the range of 143 to 144 °C.

For `CCN(CC)C(=O)COc1ccc(C(O)(CC)c2cccc(C(F)(F)F)c2)cc1` (stereo not drawn), the melting point fell in the range of 83 to 84 °C.

The molecule `CCN(CC)CC(=O)Nc1ccc(-c2n[nH]c3c2Cc2ccccc2-3)cc1` came in with a melting point of 99 to 100 °C.

Turning to `COc1cc2c(c(OC(C)=O)c1)C1CCC3(C)C(OC(C)=O)CCC3C1CC2` (stereo not drawn), the melting point lay in the range of 120 to 121 °C.

Regarding `O=C(Cc1cccc2ccccc12)N[C@H]1C[C@H](C(=O)O)Nc2cc(Cl)cc(Cl)c21` (relative stereo), the melting point fell in the range of 257 to 258 °C.

Molecule `C[Si](C)(C)c1cc(C(F)=C(F)C(F)(F)F)c(S(N)(=O)=O)s1` displayed a melting point of 129 to 140 °C.

Regarding `Clc1ccc(C#Cc2ccc(Br)cc2)cc1`, the melting point came to 179 °C.

As to `CCn1c(=O)c2[nH]c(/C=C/c3cccc(Br)c3)nc2n(CC)c1=O`, the melting point was more than 270 °C.

For the molecule `CCOC(=O)COc1ccc(C(=O)Nc2cccc(Cl)c2Cl)cc1`, the melting point was 126 to 129 °C.

`C#CCNC(=O)c1ncn2c1CN(C)C(=O)c1sccc1-2` had a melting point of 275 to 277 °C.

`CCCSc1nc(C)nc(S)c1[N+](=O)[O-]` registered a melting point of 162 to 164 °C.

The molecule `Cc1cc(C=O)ccc1C(O)c1cccnc1` (stereo not drawn) registered a melting point of 97.5 to 99 °C.

For the molecule `COC1(c2ccc3c(c2)OCO3)CCC(=O)CC1`, the melting point was 84 to 85 °C.

`C=C(C)CCC(=O)C(C(=O)OCC)C1c2ccccc2C(=O)N1c1ccc2ccc(Cl)nc2n1` (stereo not drawn): the melting point came out at 125 °C.

Molecule `Nc1ccccc1-c1cnoc1` displayed a melting point of 48 to 51 °C.

`Cc1cc(CN2CCN(c3ccc(C(=O)NC4CC4)cc3Cl)CC2)cc2c1OC(C)C(=O)N2` (stereo not drawn) had a melting point of 252 to 255 °C.

`COc1cc2c(-c3cc4cccnc4[nH]3)cn(CCN3CCOCC3)c2cc1OC` registered a melting point of 218 °C.

The molecule `CCCCCCCCCCCCCCCCCCOc1cc(OCCCCC(=O)OC)cc(C(=O)OCc2ccccc2)c1` came in with a melting point of 40 to 42 °C.

`Cc1cc2c(cc1C)N(C)c1cscc1C(=O)N2`: the melting point lay within 260 to 262 °C.

`Cc1c(O)ccc(NC2=CC(=O)C(N)=CC2=O)c1C` displayed a melting point of 320 °C.

On to `Nc1nc(-c2ccco2)nc2ccccc12`, for which the melting point was in the range of 219 to 221 °C.

Molecule `N#Cc1cnc2cc(Cl)c([N+](=O)[O-])cc2c1Cl` displayed a melting point of 143 to 153 °C.

Take `C=C(C)CNC(=O)N1CC(Oc2ccc(C(F)(F)F)cc2)C1`: the melting point is 101 to 102 °C.

For the molecule `CCOC(=O)c1cc(Cl)c2cccc(OC)c2n1`, the melting point was in the range of 131 to 132 °C.

As to `CCCCOc1c(CNC(=O)OC(C)(C)C)n(CC(C)(C)C)c(=O)c2ccc(/C=C/C(N)=O)cc12`, the melting point lay in the range of 121 to 122 °C.

As for `CC(C)OP(=O)(/C=C/CCn1cnc2c(Cl)nc(N)nc21)OC(C)C`, the melting point came to 150 °C.

`N#CCCCCC(=O)c1ccc(Br)cc1` displayed a melting point of 47 to 48 °C.
